Laboratory results from the SangsterLogP compilation.

Assay: method code SF-HPLC, from DOI: 10.1002/ps.2780400103

Row | Compound | logP
1 | CCOC(=O)c1ccc(OCC(OC(=O)n2ccnc2)C(C)(C)C)cc1 (configuration not stated) | 4.12
2 | CC(C)(C)C(COc1ccc(-c2ccccc2)cc1)OC(=S)n1ccnc1 (configuration not stated) | 6.06
3 | CC(C)(C)C(COc1ccccc1)OC(=O)n1ccnc1 (configuration not stated) | 3.58
4 | CCc1ccc(OCC(OC(=S)n2ccnc2)C(C)(C)C)cc1 (configuration not stated) | 5.09
5 | CCOc1ccc(OCC(OC(=S)n2ccnc2)C(C)(C)C)cc1 (configuration not stated) | 4.58
6 | CC(C)(C)C(COc1ccc(Br)cc1)OC(=S)n1ccnc1 (configuration not stated) | 5.11
7 | CC(C)(C)C(COc1ccc(-c2ccccc2)cc1)OC(=O)n1ccnc1 (configuration not stated) | 4.56
8 | CC(C)(C)C(COc1ccc(F)cc1)OC(=S)n1ccnc1 (configuration not stated) | 4.37
9 | COC(=O)c1ccc(OCC(OC(=S)n2ccnc2)C(C)(C)C)cc1 (configuration not stated) | 4.77
10 | COc1ccc(OCC(OC(=S)n2ccnc2)C(C)(C)C)cc1 (configuration not stated) | 4.31
11 | CC(C)(C)C(COc1ccc(Cl)cc1)OC(=S)n1ccnc1 (configuration not stated) | 4.96
12 | Cc1ccc(OCC(OC(=S)n2ccnc2)C(C)(C)C)cc1 (configuration not stated) | 4.66
13 | CCCc1ccc(OCC(OC(=S)n2ccnc2)C(C)(C)C)cc1 (configuration not stated) | 5.77
14 | CCCCc1ccc(OCC(OC(=O)n2ccnc2)C(C)(C)C)cc1 (configuration not stated) | 4.97
15 | CCCCCc1ccc(OCC(OC(=O)n2ccnc2)C(C)(C)C)cc1 (configuration not stated) | 5.26
16 | CCCOc1ccc(OCC(OC(=S)n2ccnc2)C(C)(C)C)cc1 (configuration not stated) | 5.03
17 | CCCCOc1ccc(OCC(OC(=O)n2ccnc2)C(C)(C)C)cc1 (configuration not stated) | 4.29
18 | CC(C)(C)C(COc1ccccc1)OC(=S)n1ccnc1 (configuration not stated) | 4.27
19 | CC(C)c1ccc(OCC(OC(=S)n2ccnc2)C(C)(C)C)cc1 (configuration not stated) | 5.21

Next, values leading:

Row | logP | Compound
20 | 4.19 | CC(C)(C)C(COc1ccc(Cl)cc1)OC(=O)n1ccnc1 (configuration not stated)
21 | 3.59 | COC(=O)c1ccc(OCC(OC(=O)n2ccnc2)C(C)(C)C)cc1 (configuration not stated)
22 | 4.73 | CCCc1ccc(OCC(OC(=O)n2ccnc2)C(C)(C)C)cc1 (configuration not stated)
23 | 3.86 | CCOc1ccc(OCC(OC(=O)n2ccnc2)C(C)(C)C)cc1 (configuration not stated)
24 | 4.08 | CC(C)Oc1ccc(OCC(OC(=O)n2ccnc2)C(C)(C)C)cc1 (configuration not stated)
25 | 4.37 | CC(C)(C)C(COc1ccc(Br)cc1)OC(=O)n1ccnc1 (configuration not stated)
26 | 4.1 | CCc1ccc(OCC(OC(=O)n2ccnc2)C(C)(C)C)cc1 (configuration not stated)
27 | 4.82 | CC(C)(C)c1ccc(OCC(OC(=O)n2ccnc2)C(C)(C)C)cc1 (configuration not stated)
28 | 3.46 | COc1ccc(OCC(OC(=O)n2ccnc2)C(C)(C)C)cc1 (configuration not stated)
29 | 4.3 | CC(C)(C)C(COc1ccc(I)cc1)OC(=O)n1ccnc1 (configuration not stated)
30 | 4.15 | CC(C)(C)C(COc1ccc(C(F)(F)F)cc1)OC(=O)n1ccnc1 (configuration not stated)
31 | 4.1 | CCCOc1ccc(OCC(OC(=O)n2ccnc2)C(C)(C)C)cc1 (configuration not stated)
32 | 2.59 | CC(C)(C)C(COc1ccc(S(C)(=O)=O)cc1)OC(=O)n1ccnc1 (configuration not stated)
33 | 4.03 | CSc1ccc(OCC(OC(=O)n2ccnc2)C(C)(C)C)cc1 (configuration not stated)
34 | 3.68 | CC(C)(C)C(COc1ccc(F)cc1)OC(=O)n1ccnc1 (configuration not stated)
35 | 4.77 | CC(C)c1ccc(OCC(OC(=O)n2ccnc2)C(C)(C)C)cc1 (configuration not stated)
36 | 3.15 | CC(C)(C)C(COc1ccc(C#N)cc1)OC(=O)n1ccnc1 (configuration not stated)
37 | 3.35 | CC(C)(C)C(COc1ccc([N+](=O)[O-])cc1)OC(=O)n1ccnc1 (configuration not stated)
